Experimental data as given in PMC12615753, “Glutathione as a taste modulator: molecular mechanisms of interaction with umami and sweet taste receptors” (Food Chemistry: Molecular Sciences, 2025).
pEC50: −log10 of the molar value.

Molecular target: T1, hTAS1R1 S306A/rTAS1R3 (Homo sapiens, UniProt Q7RTX1, S306A)
T1 construct: expressed in transfected cells; host or cells: HEK293T/17 (ATCC CRL-11268)
T1 sequence (Q7RTX1 21-841 S306A): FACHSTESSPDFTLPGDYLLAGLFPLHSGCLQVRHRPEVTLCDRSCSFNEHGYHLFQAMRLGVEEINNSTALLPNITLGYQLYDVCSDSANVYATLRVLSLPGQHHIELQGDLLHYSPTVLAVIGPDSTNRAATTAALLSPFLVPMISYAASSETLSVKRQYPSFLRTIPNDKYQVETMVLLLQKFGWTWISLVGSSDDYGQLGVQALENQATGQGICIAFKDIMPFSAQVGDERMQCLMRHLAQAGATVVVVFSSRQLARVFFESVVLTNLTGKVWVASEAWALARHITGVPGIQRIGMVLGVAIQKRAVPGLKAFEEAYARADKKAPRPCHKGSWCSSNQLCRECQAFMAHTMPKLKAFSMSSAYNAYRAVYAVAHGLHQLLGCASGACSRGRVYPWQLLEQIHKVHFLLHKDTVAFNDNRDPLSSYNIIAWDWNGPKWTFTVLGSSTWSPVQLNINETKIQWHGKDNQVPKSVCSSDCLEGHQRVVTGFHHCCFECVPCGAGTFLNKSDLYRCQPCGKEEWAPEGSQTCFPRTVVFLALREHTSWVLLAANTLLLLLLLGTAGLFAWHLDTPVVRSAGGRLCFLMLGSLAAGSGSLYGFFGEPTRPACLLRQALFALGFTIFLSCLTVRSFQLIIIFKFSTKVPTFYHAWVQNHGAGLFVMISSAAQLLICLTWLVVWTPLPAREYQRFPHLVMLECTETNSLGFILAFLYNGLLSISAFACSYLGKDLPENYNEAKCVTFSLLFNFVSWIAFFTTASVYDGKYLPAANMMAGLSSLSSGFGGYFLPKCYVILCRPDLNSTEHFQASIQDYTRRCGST
T1 sequence (Q923K1 21-858 partner): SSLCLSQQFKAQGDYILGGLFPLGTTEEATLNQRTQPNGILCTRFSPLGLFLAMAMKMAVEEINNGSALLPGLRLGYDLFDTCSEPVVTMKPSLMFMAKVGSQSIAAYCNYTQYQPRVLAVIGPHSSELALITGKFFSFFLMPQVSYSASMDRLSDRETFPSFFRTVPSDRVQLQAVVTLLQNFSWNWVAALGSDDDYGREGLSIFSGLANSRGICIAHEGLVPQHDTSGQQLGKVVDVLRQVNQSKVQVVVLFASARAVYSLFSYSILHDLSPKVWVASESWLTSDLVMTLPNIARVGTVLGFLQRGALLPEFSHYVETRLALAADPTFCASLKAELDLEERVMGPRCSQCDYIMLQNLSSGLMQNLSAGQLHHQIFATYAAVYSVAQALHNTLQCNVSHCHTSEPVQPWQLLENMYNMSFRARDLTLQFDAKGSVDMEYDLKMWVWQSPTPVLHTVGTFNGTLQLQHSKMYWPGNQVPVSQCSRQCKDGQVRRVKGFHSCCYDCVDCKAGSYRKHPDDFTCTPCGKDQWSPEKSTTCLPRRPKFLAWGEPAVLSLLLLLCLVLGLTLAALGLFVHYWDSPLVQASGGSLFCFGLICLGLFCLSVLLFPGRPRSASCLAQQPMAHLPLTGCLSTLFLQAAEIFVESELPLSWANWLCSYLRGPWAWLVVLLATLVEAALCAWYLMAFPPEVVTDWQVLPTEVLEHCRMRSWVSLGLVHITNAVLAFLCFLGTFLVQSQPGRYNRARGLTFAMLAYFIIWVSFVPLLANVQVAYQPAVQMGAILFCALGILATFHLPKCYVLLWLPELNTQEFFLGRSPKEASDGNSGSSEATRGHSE
Test: Calcium assay, hTAS1R1 mutant co-expressed with rTAS1R3
Format: cell-based, rat

| Compound | pEC50 | effect of the added compound (1 mM) on the response to L-Glu (S306A) | response to the agonist alone, vs WT (S306A) |
| --- | --- | --- | --- |
| N[C@@H](CCC(=O)N[C@@H](CS)C(=O)NCC(=O)O)C(=O)O [GSH, γ-L-glutamyl-L-cysteinyl-glycine] | < 1.52 | did not affect | fully abolished |
| CCCC(CCC)NC(=O)c1ccc2c(c1)OCO2 [S807, N-(heptan-4-yl)benzo[d][1,3]dioxole-5-carboxamide, reference compound] | – | – | strongly affected |
